Columns and labels:
[1] = system: Proto-oncogene tyrosine-protein kinase receptor Ret (Homo sapiens), P07949 [C634W]; details: TT
Description: Inhibition of RET C634W mutant in human TT cells assessed as cell growth inhibition after 10 days by MTT assay

[2] = system: Proto-oncogene tyrosine-protein kinase receptor Ret (Homo sapiens), P07949 [V804M]; details: BaF3
[3] = target: Proto-oncogene tyrosine-protein kinase receptor Ret (Homo sapiens, UniProt P07949, V804M); assay: Inhibition of human Ret V804M mutant by radiometric assay in presence of [gamma-33P]-ATP
[4] = Cytotoxicity against mouse BAF3 cells after 48 hrs by MTT assay; assay type: cell-based
[5] = target: T1, Proto-oncogene tyrosine-protein kinase receptor Ret (Homo sapiens, UniProt P07949); assay: Inhibition of human wild type RET by radiometric assay in presence of [gamma-33P]-ATP
T1 sequence (P07949 whole entry): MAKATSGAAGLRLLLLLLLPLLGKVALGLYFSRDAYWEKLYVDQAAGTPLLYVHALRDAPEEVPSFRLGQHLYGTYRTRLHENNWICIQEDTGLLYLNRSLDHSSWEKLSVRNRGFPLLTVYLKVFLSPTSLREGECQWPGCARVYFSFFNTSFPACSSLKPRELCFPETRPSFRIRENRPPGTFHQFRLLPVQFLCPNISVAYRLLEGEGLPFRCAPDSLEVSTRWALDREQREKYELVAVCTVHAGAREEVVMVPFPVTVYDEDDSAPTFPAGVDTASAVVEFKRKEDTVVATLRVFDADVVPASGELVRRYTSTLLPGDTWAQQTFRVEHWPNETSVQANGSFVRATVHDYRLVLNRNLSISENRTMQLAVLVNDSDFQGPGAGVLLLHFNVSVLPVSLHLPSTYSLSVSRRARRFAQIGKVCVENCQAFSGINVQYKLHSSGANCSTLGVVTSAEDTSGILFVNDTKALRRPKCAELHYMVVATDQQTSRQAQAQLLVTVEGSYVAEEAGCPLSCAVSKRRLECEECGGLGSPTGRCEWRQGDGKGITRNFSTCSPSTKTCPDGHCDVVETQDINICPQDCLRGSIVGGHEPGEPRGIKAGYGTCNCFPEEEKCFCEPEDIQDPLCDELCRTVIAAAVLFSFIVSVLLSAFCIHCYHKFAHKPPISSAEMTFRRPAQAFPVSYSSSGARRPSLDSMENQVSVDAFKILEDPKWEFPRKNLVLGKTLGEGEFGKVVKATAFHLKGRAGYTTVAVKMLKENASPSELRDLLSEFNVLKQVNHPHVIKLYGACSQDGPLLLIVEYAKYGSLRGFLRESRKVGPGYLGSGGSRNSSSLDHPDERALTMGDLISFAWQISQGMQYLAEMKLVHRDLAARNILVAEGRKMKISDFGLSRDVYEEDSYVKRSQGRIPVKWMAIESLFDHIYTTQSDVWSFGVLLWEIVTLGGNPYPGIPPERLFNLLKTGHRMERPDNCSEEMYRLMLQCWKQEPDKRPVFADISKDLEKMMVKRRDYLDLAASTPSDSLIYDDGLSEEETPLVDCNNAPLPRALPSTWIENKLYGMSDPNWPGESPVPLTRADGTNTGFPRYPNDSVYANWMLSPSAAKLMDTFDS

[6] = target: T1, Proto-oncogene tyrosine-protein kinase receptor Ret; details: BaF3
Description: Inhibition of wild type TEL-fused RET (unknown origin) expressed in mouse BA/F3 cells assessed as cell growth inhibition after 48 hrs by MTT assay

[7] = Cytotoxicity against human Nthy-ori 3-1 cells after 10 days by MTT assay; assay type: cell-based

Proto-oncogene tyrosine-protein kinase receptor Ret (Homo sapiens, UniProt P07949, V804M), sequence (P07949 29-1114 V804M limits assumed): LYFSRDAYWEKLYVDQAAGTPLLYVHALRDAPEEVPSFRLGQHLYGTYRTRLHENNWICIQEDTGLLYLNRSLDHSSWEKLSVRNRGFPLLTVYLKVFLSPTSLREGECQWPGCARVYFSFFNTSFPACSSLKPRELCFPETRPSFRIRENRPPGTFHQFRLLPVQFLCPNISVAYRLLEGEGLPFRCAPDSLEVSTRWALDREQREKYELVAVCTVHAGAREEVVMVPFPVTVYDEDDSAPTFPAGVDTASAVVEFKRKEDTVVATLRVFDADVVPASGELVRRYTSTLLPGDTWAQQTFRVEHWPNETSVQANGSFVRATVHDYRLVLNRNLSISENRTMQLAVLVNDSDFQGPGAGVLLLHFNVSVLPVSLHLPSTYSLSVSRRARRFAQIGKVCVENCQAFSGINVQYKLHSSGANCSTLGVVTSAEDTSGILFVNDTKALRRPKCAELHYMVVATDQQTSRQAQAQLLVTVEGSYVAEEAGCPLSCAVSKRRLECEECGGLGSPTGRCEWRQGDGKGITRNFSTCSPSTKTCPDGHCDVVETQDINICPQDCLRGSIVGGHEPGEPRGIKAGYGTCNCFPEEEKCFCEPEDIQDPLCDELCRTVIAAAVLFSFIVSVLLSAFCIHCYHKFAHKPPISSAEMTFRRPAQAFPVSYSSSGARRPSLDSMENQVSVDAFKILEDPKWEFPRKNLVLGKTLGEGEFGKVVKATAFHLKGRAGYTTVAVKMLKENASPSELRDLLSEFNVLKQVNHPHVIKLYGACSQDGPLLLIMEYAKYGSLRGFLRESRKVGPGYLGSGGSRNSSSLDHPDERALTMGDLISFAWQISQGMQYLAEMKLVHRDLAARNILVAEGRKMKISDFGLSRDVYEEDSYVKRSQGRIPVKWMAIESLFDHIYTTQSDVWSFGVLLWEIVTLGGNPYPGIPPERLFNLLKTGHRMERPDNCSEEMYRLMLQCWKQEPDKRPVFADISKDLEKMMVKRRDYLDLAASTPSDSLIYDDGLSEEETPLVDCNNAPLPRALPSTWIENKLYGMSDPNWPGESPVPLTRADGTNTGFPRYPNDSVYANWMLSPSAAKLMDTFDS
Proto-oncogene tyrosine-protein kinase receptor Ret (Homo sapiens), P07949 [C634W], sequence (P07949 whole entry C634W): as the sequence (P07949 whole entry) above, with C634W counted along it
Proto-oncogene tyrosine-protein kinase receptor Ret (Homo sapiens), P07949 [V804M], sequence (P07949 whole entry V804M): as the sequence (P07949 whole entry) above, with V804M counted along it

Structure (SMILES) | GI50 [1] | GI50 [2] | IC50 [3] | IC50 [5] | GI50 [6] | GI50 at 48 h [4] | GI50 at 240 h [7]
Nc1ncnc2[nH]nc(-c3cc(C4CC4)on3)c12 | > 10 µM | > 10 µM | 0.354 µM | 0.052 µM | 5.34 µM | > 10 µM | 0.51 µM
CC(C)n1nc(-c2cc(C3CCCCC3)on2)c2c(N)ncnc21 | > 10 µM | 4.73 µM | – | 0.91 µM | 9.5 µM | > 10 µM | 4.11 µM
CC(C)n1nc(-c2cc(-c3ccc(F)cc3)on2)c2c(N)ncnc21 | > 10 µM | > 10 µM | – | 0.15 µM | > 10 µM | > 10 µM | 9.77 µM
CC(C)n1nc(C2=NOC(c3ccccc3)C2)c2c(N)ncnc21 (stereo not drawn) | > 10 µM | > 10 µM | 5.68 µM | 0.583 µM | 6.24 µM | > 10 µM | 18.9 µM
CCCCCCCn1nc(-c2cc(C3CC3)on2)c2c(N)ncnc21 | > 10 µM | > 10 µM | 0.927 µM | 0.096 µM | > 10 µM | > 10 µM | 31.6 µM
CC(C)n1nc(-c2cc(-c3ccccc3)on2)c2c(N)ncnc21 | > 10 µM | 4.97 µM | – | 0.19 µM | 3.46 µM | > 10 µM | 5.72 µM
Nc1ncnc2c1c(-c1cc(C3CC3)on1)nn2Cc1ccccc1 | > 10 µM | > 10 µM | 0.557 µM | 0.074 µM | > 10 µM | > 10 µM | 39.6 µM

These reach a lower GI50 [1]. Values come first.

GI50 [1] | GI50 [2] | IC50 [3] | IC50 [5] | GI50 [6] | Structure (SMILES) | GI50 at 48 h [4] | GI50 at 240 h [7]
9.27 µM | > 10 µM | – | 8.33 µM | 7.41 µM | CC(C)n1nc(/C=N/OCc2ccccc2)c2c(N)ncnc21 | > 10 µM | 9.85 µM
3.51 µM | 5.56 µM | 0.182 µM | 0.027 µM | 2.67 µM | Cn1nc(-c2cc(C3CC3)on2)c2c(N)ncnc21 | > 10 µM | 28.7 µM
2.61 µM | 5.77 µM | 0.531 µM | 0.041 µM | 1.56 µM | CCc1cc(-c2nn(C(C)C)c3ncnc(N)c23)no1 | > 10 µM | 28.6 µM
0.94 µM | 1.93 µM | 0.041 µM | 0.005 µM | 0.44 µM | Nc1ncnc2c1c(-c1cc(C3CC3)on1)nn2C1CCOCC1 | > 10 µM | 32.9 µM

From ChEMBL document CHEMBL3751668, “A Pyrazolo[3,4-d]pyrimidin-4-amine Derivative Containing an Isoxazole Moiety Is a Selective and Potent Inhibitor of RET Gatekeeper Mutants” (J Med Chem, 2016)
